Data: article PMC8588536, “Iridal-Type Triterpenoids Displaying Human Neutrophil Elastase Inhibition and Anti-Inflammatory Effects from Belamcanda chinensis” (Molecules, 2021)
Entries after “also recorded” stand apart in the source; their conditions may differ.

Columns and labels:
[1] = molecular target: T1, Human neutrophil elastase (HNE) (Homo sapiens, UniProt P08246); assay: Fluorescence quenching binding affinity to HNE; conditions: inhibitor 7.8–31.2 µM; for Kd: read-out: KA (association constant of the complex of enzyme and quencher) (converted); for KSV (Stern-Volmer quenching constant): λEx 260 nm, λEm 280–400 nm
T1 construct: purchased Sigma-Aldrich
T1 sequence (P08246 30-267): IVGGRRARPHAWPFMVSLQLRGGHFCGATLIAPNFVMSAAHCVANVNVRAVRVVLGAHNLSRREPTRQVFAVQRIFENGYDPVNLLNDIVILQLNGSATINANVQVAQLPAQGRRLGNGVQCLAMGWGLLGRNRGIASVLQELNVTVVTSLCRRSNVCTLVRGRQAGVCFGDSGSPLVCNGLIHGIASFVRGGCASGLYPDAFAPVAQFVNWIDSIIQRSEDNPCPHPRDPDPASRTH
Procedure: To measure fluorescence from the HNE enzyme, 10 μL of 0.01 unit/mL enzyme solution with 180 μL of Tris-HCl buffer (0.02 mM) was accurately added into the 96-well black immunoplates. Then, 10 μL of incremental concentrations (7.8–31.2 μΜ) of inhibitors were added into each well. All fluorescence spectra were measured from 280 to 400 nm with emission slits regulated to 2.0 nm, and the excitation wavelength was 260 nm. The Stern–Volmer quenching constant (KSV) was calculated using Equation (5). All experiments were conducted in triplicate, and the mean values were calculated. (5) […]=1+KSV[Q], where F0 and F are the fluorescence intensities in the absence and presence of quencher (Q). KSV is the Stern–Volmer quenching constant [LM^−1]. For static quenching, the correlation between the fluorescence intensity and the concentration of quencher for the series of reactions can be estimated by Equation (6). (6) log[(F0−F)/F]=logKA+nlog[Q]f.
F0 and F are the fluorescence intensities in the absence and presence of inhibitor; KA is the binding constant; n is the number of binding sites of the enzyme; Qf is the concentration of inhibitor.

[2] = system: NO production in LPS-stimulated RAW264.7 cells; assay: Nitrite levels (NO production), Griess method; format: cell-based, mouse; conditions: 1 or 3 µg/mL 2 h prior to LPS 1 µg/mL for 16 h; p < 0.05
Procedure: Nitrite levels were determined using the Griess method, as described previously (Jeong et al., 2016). Briefly, RAW264.7 cells (5 × 10^4 cells/well) were cultured in a 24-well plate. The cells were pretreated with triterpenoids (1 or 3 µg/mL) 2 h prior to lipopolysaccharides (LPS, 1 µg/mL) treatment for 16 h. Supernatants were collected and centrifuged at 2451× g for 10 min. The (50 μL) of supernatants were mixed with equal volumes of Griess reagent (1% sulfanilamide, 0.1% n-l-naphthylethy-lenediamine dihydrochloride, and 2% phosphoric acid), and incubated for 10 min. The optical density was measured at 550 nm, and the nitrite levels were calculated from a standard curve generated from sodium nitrite.

[3] = system: TNF-α in LPS-stimulated RAW264.7 cells; assay: TNF-α concentration by ELISA; format: cell-based, mouse; conditions: 1 or 3 µg/mL 2 h prior to LPS 1 µg/mL for 16 h; n = 6, p < 0.05
Procedure: RAW264.7 cell (2 × 10^5 cells/well) were cultured in a 6-well plate for 24 h and treated with compounds (1 or 3 µg/mL) 2 h prior to LPS treatment, followed by LPS (1 µg/mL) for 16 h. The concentration of pro-inflammatory cytokines in the collected supernatant was quantified using an ELISA kit (R&D system, Minneapolis, MN, USA) according to the manufacturer’s instructions. Briefly, 50 μL of assay diluent, sample, and standards were added to the ELISA well plate, which were pre-coated with anti-mouse IL-1β and TNF-α antibody. The plates were then covered with adhesive strip, agitated, and incubated for 2 h at room temperature. The ELISA well-plate was washed five times with a wash buffer, then 100 μL of mouse IL-1β and TNF-α conjugates was added and incubated at room temperature for 2 h. The plate was washed five times, 100 μL of substrate solution was added to each well, and incubated for 30 min in the dark. The reaction was quenched by the addition of 100 μL stop solution to each well, and the absorbance was read 450 nm/570 nm with an ELISA reader (Molecular Devices, Sunnyvale, CA, USA).

[4] = system: iNOS mRNA in LPS-stimulated RAW264.7 cells; assay: iNOS mRNA expression by RT-PCR; format: cell-based, mouse; conditions: 1 or 3 µg/mL, LPS 1 µg/mL; n = 5, p < 0.05
Procedure: Total RNA was isolated from cultured RAW264.7 cells using TRIzol reagent (Ambion®, Carlsbad, CA, USA) according to the manufacturer’s instructions. First strand cDNA was synthesized from the total RNA (3 μg) using oligo dT (DiaStar RT Kit, SolGent, Daejeon, Korea) and was used as a template for PCR amplification with G-Taq polymerase (Cosmogenetech, Seoul, Korea). The first-strand cDNA was quantified using a spectrophotometer (NanoDrop® ND-1000, NanoDrop Technologies, Wilmington, […], USA). The quantified cDNA was used as a template. PCR assay was performed with specific primers for inducible nitric oxide (iNOS), IL-1β, and TNF-α. The PCR steps included initial denaturation at 94 °C for 5 min, then 28 cycles at 94 °C for 30 s, 57 °C for 30 s, and 72 °C for 30 s, and a final extension step at 72 °C for 10 min. The amplified PCR products were separated in 1.5% agarose gel, and the gel was stained with ethidium bromide. The bands were visualized using the iBright^TM CL1500 imaging system (Thermo Scientific Fisher/Life Technologies Holdings Pte Ltd., Singapore). The DNA fragments were directly sequenced with the ABI PRISM® 3100-Avant Genetic Analyzer (Applied Biosystems, Carlsbad, CA, USA).

[5] = system: RAW264.7 cells; assay: MTT cell viability assay; format: cell-based, mouse; conditions: 10 µg/mL, 24 h
Procedure: The mouse macrophage cell line RAW264.7 was obtained from the American Type Culture Collection (ATCC, Manassas, VA, USA). The cells were cultured in DMEM supplemented with 10% fetal bovine serum (FBS), penicillin (100 U/mL), and streptomycin (100 μg/mL) at 37 °C with 5% CO2. The medium was replaced every 2 days. After treatment with chemicals, the cell morphological changes were observed under a microscope and images are captured before cell viability assay.
Cell viability was determined calorimetrically using a 3-(4,5-dimethylthiazole-2-yl)-2,5-diphenyl tetrazolium bromide (MTT) reagent (5 mg/mL in phosphate buffered saline (PBS), Duchefa Biochemie, Haarlem, The Netherlands). The MTT assay procedures were performed as described previously. Briefly, a 24-well plate (5 × 10^4 cells/well) was seeded with RAW264.7, a mouse macrophage cell line. After 24 h of chemical treatment, each well was filled with 20 µL of 5 mg/mL MTT solution (0.1 mg/mL) and incubated for 4 h. After aspirating the supernatants, the formazan crystals in each well were dissolved in 200 µL of dimethyl sulfoxide (DMSO) for 30 min at 37 °C, and the 24-well plates were read at 570 nm with a microplate reader (Bio-Rad, Hercules, CA, USA). Data are expressed as a percentage of viable cells compared with the control.

**Q.** Which results are given for `CC(C)=CCC/C(C)=C/C[C@@H](O)/C(C)=C/CC[C@@]1(C)[C@H](CCCO)/C(=C(/C)C=O)CC[C@]1(C)O` [Compound 1, isoiridogermanal]?
**A.** n (number of binding sites of the enzyme) [1]: 1.0039; Kd [1]: 24.3 µM; KSV (Stern-Volmer quenching constant) [1]: 41660 L/mol; LPS-induced NO production [2]: significantly reduced; LPS-upregulated TNF-α concentration [3]: noticeably decreased; LPS-induced iNOS mRNA upregulation [4]: significantly reduced; reduction of cell viability [5]: 28.8 ± 4.4%

**Q.** With `CC(C)=CCCC(C)=CCC(O)C(C)=CCCC1(C)C(CCCO)C(=C(C)C=O)CCC1(C)O` (centres unmarked) [Compound 2, iridobelamal A] as the compound, how does the “n (number of binding sites of the enzyme)” value [1] read?
**A.** Its value is 0.9734.

**Q.** What about the Kd [1] of the same compound?
**A.** The Kd was 50.3 µM.

**Q.** What about the “KSV (Stern-Volmer quenching constant)” value [1] of the same compound?
**A.** The value was 18160 L/mol.

**Q.** What about the “LPS-induced NO production” value [2] of the same compound?
**A.** The value was “significantly reduced; also recorded: dose-dependent inhibition”.

**Q.** And the “LPS-upregulated TNF-α concentration” value [3]?
**A.** The value was “noticeably decreased”.

**Q.** What about the “LPS-induced iNOS mRNA upregulation” value [4] of the same compound?
**A.** Its value is “significantly reduced”.

**Q.** What about the “reduction of cell viability” value [5] of the same compound?
**A.** Its value is 23.4 ± 5.1%.
